Measurements: patent EP4201483A1, “LPL1 DERIVED IMMUNE ENHANCING PEPTIDES” (Eberhard-Karls-Universität Tübingen, priority 2021, dated 2023)
Where no end group is shown, it is not given here.

How the values were obtained:
[1] = tested on: MM6, HEK293, HaCaT, HeLa and HT-29; experiment: Cytotoxicity assays (MTT and resazurin/Alamar Blue) on 5 mammalian cell lines; format: cell-based, human; conditions: 24h and 48h of exposure
Description: (§1) Cytotoxicity assays were conducted on 5 different mammalian cell lines after 24h and 48h of exposure to the various compounds, using the colorimetric tetrazolium dye MTT and the fluorometric resazurin (Alamar Blue): MM6 (human cell line with characteristics of mature monocytes), HEK293 (human embryonic kidney cells), HaCaT (human keratinocyte cell line), HeLa (human cervical cancer cell line) and HT-29 (human colon cancer cell line).

S. aureus = experiment: Septic arthritis mouse model (mouse sepsis model); format: in vivo; conditions: mice treated with L15
Description: (§2) The figures show: • Figure 1: Extent of sequence homology of the nine Lpl proteins encoded by the lpl operon in S. aureus USA300. […] LSP, leader signal peptide. Total length without LSP is 267 aa. We have chosen Lpli as a prototype of Lpl proteins for further studies. • Figure 2: L13 and L15 inhibit S. aureus internalization by HaCaT cells and N/TERT1 cells. N/TERT-1 are immortalized human keratinocytes. L15 was used at 20 µM), L13 at 30 µM and geldanamycin at 5 µM. SNC1 is representative for the many peptides that had no effect • Figure 3: Alignment of Lpl protein homologs. (A) Multiple sequence alignment of Lpls generated by using SnapGene software. Amino acids that match the Lpli sequence are highlighted in yellow. […] A therapeutic model (treatment at intervals post-infection) is already envisaged in the course of this project. • Figure 5: Quantification of the secreted cytokine IL-23 after stimulation of peripheral blood mononuclear cells of different donors with various cell wall components of Staphylococcus aureus. […] The measured IL-23 concentrations are depicted in pg/ml ± standard error of mean (SEM). • Figure 6: Prediction of Lpli structure and localization of L15 (top row, binding area indicated by white arrows) and L13 (bottom row, binding area indicated by white arrows) in Lpli. […]

Solubility remark = format: physicochemical; conditions: compared with L15; reason why only L15 was used in mice
in vitro = format: cell-based; conditions: human; 24h and 48h of exposure; MTT and resazurin; MM6, HEK293, HaCaT, HeLa, HT-29; read-out: cytotoxicity (viability), concentration
Description: as §1

Hsp90 = conditions: upon Hsp90 inhibition (Taiyab & Rao Ch, 2011); cited from earlier work
[2] = tested on: peripheral blood mononuclear cells (PBMCs); experiment: Cytokine production by stimulated peripheral blood mononuclear cells (LegendPlex-Kits); format: cell-based; conditions: PBMCs from different donors; MDP 20 µg/ml, others 6 and 30 µg/ml
Description: as §2

Molecule: TAKGHYFVTTFYRNG [Peptide L15, TAKGHYFVTTFYRNG]
- cytotoxicity (viability), concentration [1]: > 100 µM
- behaviour of treated mice (side observation) (S. aureus): hyperactive

Molecule: GHYFVTTFY [Peptide L13, GHYFVTTFY]
- cytotoxicity (viability), concentration [1]: > 100 µM
- solubility (Solubility remark): less soluble

Molecule: COC1=C2C[C@@H](C)C[C@H](OC)[C@H](O)[C@@H](C)/C=C(\C)[C@H](OC(N)=O)[C@@H](OC)/C=C\C=C(/C)C(=O)NC(=CC1=O)C2=O [geldanamycin]
- MCC (in vitro): ≤ 10 µM

Molecule: C=CCNC1=C2C[C@@H](C)C[C@H](OC)[C@H](O)[C@@H](C)/C=C(\C)[C@H](OC(N)=O)[C@@H](OC)/C=C\C=C(/C)C(=O)NC(=CC1=O)C2=O [Peptide 17AAG, 17AAG]
- F-actin formation (Hsp90): decreased

Molecule: CC(=O)N[C@H]1C(O)O[C@H](CO)[C@@H](O)[C@@H]1O[C@H](C)C(=O)N[C@@H](C)C(=O)N[C@H](CCC(=O)O)C(N)=O (mixture of isomers) [Muramyl Dipeptide (MDP), Muramyl Dipeptide]
- levels of TNF, IL-1β, IL-6 or IL-10 induced [2]: high levels
